According to patent publication US20160122821A1, “GENETIC MARKERS OF ANTIPSYCHOTIC RESPONSE” (SUREGENE, LLC, priority 2013, published 2016):

Test system: Caucasian patients with schizophrenia (CATIE)
Assay: Genetic association (linear regression, additive model) of SNP alleles with MMRM-modelled change in PANSS Total Score under antipsychotic treatment, CATIE trial
Format: in vivo, human

OCCOCCN1CCN(C2=Nc3ccccc3Sc3ccccc32)CC1 [Quetiapine, quetiapine]
Beta (PANSS) (AKAP9 rs35759833 allele C, P 4.46E−02): −4.62 PANSS
Beta (PANSS) (ARSB rs25414 allele C, P 2.37E−03): −9.37 PANSS
Beta (PANSS) (ATP2B2 rs11712897 allele C, P 2.77E−02): −3.54 PANSS
Beta (PANSS) (C13orf35 rs4907727 allele C, P 2.16E−02): −3.58 PANSS
Beta (PANSS) (C15orf41 rs8027206 allele A, P 2.90E−02): −3.40 PANSS
Beta (PANSS) (CA10 rs7210687 allele C, P 2.52E−02): −3.24 PANSS
Beta (PANSS) (CA10 rs17607202 allele C, P 3.87E−02): −3.10 PANSS
Beta (PANSS) (CACNA2D3 rs9861155 allele A, P 2.07E−02): −4.28 PANSS
Beta (PANSS) (CCBE1 rs12606241 allele G, P 3.38E−02): −4.12 PANSS
Beta (PANSS) (CDH13 rs3935908 allele G, P 4.47E−02): −2.89 PANSS
Beta (PANSS) (CDH13 rs8048616 allele C, P 2.03E−02): −3.49 PANSS
Beta (PANSS) (CERK rs78424 allele A, P 2.86E−02): −3.60 PANSS
Beta (PANSS) (CHRM3 rs4659552 allele A, P 3.50E−02): −3.02 PANSS
Beta (PANSS) (CLSTN2 rs10513102 allele C, P 4.28E−02): −4.05 PANSS
Beta (PANSS) (CNTN6 rs7646412 allele A, P 2.28E−02): −4.64 PANSS
Beta (PANSS) (CNTNAP2 rs10240221 allele A, P 3.63E−02): −3.22 PANSS
Beta (PANSS) (COL22A1 rs4311658 allele G, P 2.37E−03): −5.04 PANSS
Beta (PANSS) (COL22A1 rs4442151 allele C, P 2.37E−03): −5.04 PANSS
Beta (PANSS) (CPLX2 rs2243404 allele C, P 2.25E−02): −4.30 PANSS
Beta (PANSS) (CSMD1 rs2616996 allele G, P 4.49E−02): −3.44 PANSS
Beta (PANSS) (CTNNA2 rs10201249 allele A, P 2.33E−02): −4.77 PANSS
Beta (PANSS) (CTNNA2 rs10520244 allele C, P 2.12E−02): −6.07 PANSS
Beta (PANSS) (CTNNA2 rs17018593 allele A, P 2.95E−02): −4.25 PANSS
Beta (PANSS) (DENND4C rs2666797 allele C, P 2.72E−02): −3.79 PANSS
Beta (PANSS) (DGKD rs838717 allele A, P 2.74E−02): −3.38 PANSS
Beta (PANSS) (DLC1 rs12677920 allele A, P 3.27E−02): −3.35 PANSS
Beta (PANSS) (DLG2 rs7101982 allele C, P 4.47E−02): −2.93 PANSS
Beta (PANSS) (DYNC1I1 rs17638044 allele C, P 2.39E−03): −8.72 PANSS
Beta (PANSS) (ERG rs10854385 allele A, P 3.76E−02): −4.00 PANSS
Beta (PANSS) (ESRRG rs9441544 allele C, P 2.40E−02): −4.04 PANSS
Beta (PANSS) (ETV1 rs41505 allele C, P 2.62E−03): −4.08 PANSS
Beta (PANSS) (EXOC2 rs1747599 allele G, P 4.44E−02): −3.71 PANSS
Beta (PANSS) (EXOC2 rs17135234 allele A, P 3.55E−02): −4.93 PANSS
Beta (PANSS) (FBXL2 rs6772365 allele C, P 4.07E−02): −3.45 PANSS
Beta (PANSS) (FHIT rs12636662 allele A, P 2.18E−03): −4.62 PANSS
Beta (PANSS) (FLJ38109 rs11167681 allele C, P 3.82E−02): −3.35 PANSS
Beta (PANSS) (FMN2 rs1020709 allele C, P 3.77E−02): −3.38 PANSS
Beta (PANSS) (FMNL2 rs1155779 allele C, P 2.20E−02): −3.41 PANSS
Beta (PANSS) (FOXP1 rs831440 allele C, P 3.37E−02): −3.67 PANSS
Beta (PANSS) (GALNTL4 rs4909979 allele C, P 2.49E−02): −5.30 PANSS
Beta (PANSS) (GNG2 rs1343870 allele G, P 4.37E−02): −3.12 PANSS
Beta (PANSS) (GPR116 rs9395218 allele C, P 3.77E−02): −4.73 PANSS
Beta (PANSS) (GRID2 rs1433667 allele C, P 2.84E−03): −4.87 PANSS
Beta (PANSS) (GRID2 rs1836115 allele A, P 3.01E−02): −3.53 PANSS
Beta (PANSS) (GRID2 rs13103135 allele C, P 4.20E−02): −3.66 PANSS
Beta (PANSS) (GRM8 rs17865066 allele A, P 2.61E−02): −10.79 PANSS
Beta (PANSS) (GRM8 rs17865434 allele C, P 2.61E−02): −10.79 PANSS
Beta (PANSS) (HAAO rs3755540 allele C, P 2.01E−02): −3.79 PANSS
Beta (PANSS) (INMT-FAM188B;FAM188B rs10230286 allele A, P 2.09E−02): −3.51 PANSS
Beta (PANSS) (INMT-FAM188B;FAM188B rs11972565 allele A, P 2.70E−02): −3.53 PANSS
Beta (PANSS) (ITPR2 rs11048710 allele A, P 3.74E−02): −3.75 PANSS
Beta (PANSS) (IYD rs2076286 allele A, P 4.24E−02): −6.69 PANSS
Beta (PANSS) (JAG1 rs6074164 allele A, P 3.54E−02): −4.59 PANSS
Beta (PANSS) (KCNB1 rs34467662 allele C, P 2.39E−02): −9.06 PANSS
Beta (PANSS) (KCNIP4 rs10516363 allele A, P 3.20E−02): −3.43 PANSS
Beta (PANSS) (KCNQ1 rs422314 allele C, P 3.83E−02): −3.18 PANSS
Beta (PANSS) (KCNQ3 rs17659416 allele A, P 2.67E−02): −4.39 PANSS
Beta (PANSS) (LDB2 rs3805320 allele A, P 3.90E−02): −3.16 PANSS
Beta (PANSS) (LRFN2 rs2078460 allele A, P 3.06E−02): −3.67 PANSS
Beta (PANSS) (LRP1B rs2380943 allele C, P 1.96E−02): −3.47 PANSS
Beta (PANSS) (LRP1B rs34488772 allele A, P 2.80E−02): −8.41 PANSS
Beta (PANSS) (MCPH1 rs2515509 allele C, P 2.44E−02): −5.16 PANSS
Beta (PANSS) (MSR1 rs6981231 allele C, P 2.17E−02): −7.67 PANSS
Beta (PANSS) (MYO10 rs26317 allele A, P 2.25E−02): −3.80 PANSS
Beta (PANSS) (NCAM2 rs12483671 allele A, P 4.38E−02): −3.47 PANSS
Beta (PANSS) (NLGN1 rs2861338 allele A, P 2.69E−02): −3.51 PANSS
Beta (PANSS) (NPAS3 rs927763 allele G, P 3.26E−02): −4.45 PANSS
Beta (PANSS) (NRG3 rs12767532 allele G, P 2.93E−02): −3.66 PANSS
Beta (PANSS) (OPCML rs3018407 allele A, P 2.60E−02): −3.48 PANSS
Beta (PANSS) (OPCML rs3019855 allele C, P 3.16E−02): −3.40 PANSS
Beta (PANSS) (OPCML rs3920986 allele G, P 2.33E−02): −3.72 PANSS
Beta (PANSS) (PARD3B rs7589114 allele C, P 4.08E−02): −3.18 PANSS
Beta (PANSS) (PCDH15 rs2384470 allele C, P 2.33E−03): −5.21 PANSS
Beta (PANSS) (PIKFYVE rs17699982 allele A, P 4.51E−02): −4.12 PANSS
Beta (PANSS) (PLCG2 rs4889447 allele C, P 3.48E−02): −5.77 PANSS
Beta (PANSS) (PLXDC2 rs989767 allele A, P 4.48E−02): −3.31 PANSS
Beta (PANSS) (PRKG1 rs1904018 allele C, P 2.81E−02): −3.09 PANSS
Beta (PANSS) (PTPRT rs876523 allele C, P 2.06E−02): −3.45 PANSS
Beta (PANSS) (RGS7 rs2678780 allele A, P 2.47E−03): −4.56 PANSS
Beta (PANSS) (RGS7 rs10802943 allele C, P 3.52E−02): −2.99 PANSS
Beta (PANSS) (RIMBP2 rs12305517 allele C, P 2.16E−02): −5.62 PANSS
Beta (PANSS) (ROBO2 rs1470571 allele C, P 3.50E−02): −3.69 PANSS
Beta (PANSS) (RPRD1A rs4799835 allele A, P 4.31E−02): −3.76 PANSS
Beta (PANSS) (SAMD4A rs8011374 allele C, P 3.60E−02): −3.17 PANSS
Beta (PANSS) (SDK2 rs4969114 allele A, P 2.22E−02): −3.33 PANSS
Beta (PANSS) (SGCZ rs12155874 allele A, P 3.89E−02): −3.08 PANSS
Beta (PANSS) (SHC3 rs10122011 allele C, P 2.47E−02): −3.43 PANSS
Beta (PANSS) (SLC35F3 rs12087906 allele G, P 3.30E−02): −9.04 PANSS
Beta (PANSS) (SORBS1 rs4572071 allele A, P 3.25E−02): −3.66 PANSS
Beta (PANSS) (SORBS1 rs4918911 allele C, P 4.32E−02): −3.34 PANSS
Beta (PANSS) (ST8SIA1 rs4606528 allele C, P 3.26E−02): −3.84 PANSS
Beta (PANSS) (STX11 rs3734228 allele C, P 3.21E−02): −9.67 PANSS
Beta (PANSS) (STX11 rs6912580 allele C, P 3.21E−02): −9.67 PANSS
Beta (PANSS) (TGIF1 rs12606927 allele A, P 4.02E−02): −3.49 PANSS
Beta (PANSS) (TMC1 rs10869183 allele T, P 2.41E−02): −3.43 PANSS
Beta (PANSS) (TMTC2 rs7974520 allele A, P 3.49E−02): −3.64 PANSS
Beta (PANSS) (TRIM9 rs882413 allele C, P 2.00E−02): −4.35 PANSS
Beta (PANSS) (TSC1 rs1050700 allele A, P 4.13E−02): −3.29 PANSS
Beta (PANSS) (USP10 rs2012708 allele C, P 3.86E−02): −3.05 PANSS
Beta (PANSS) (WWOX rs7203676 allele C, P 2.23E−02): −3.87 PANSS
